Patent US5278161A, “Amino acid derivatives useful as renin inhibitors” (Hoffmann-La Roche Inc., priority 1990, dated 1994)

Target: T1, human renin (Homo sapiens, UniProt P00797)
T1 sequence (P00797 67-406): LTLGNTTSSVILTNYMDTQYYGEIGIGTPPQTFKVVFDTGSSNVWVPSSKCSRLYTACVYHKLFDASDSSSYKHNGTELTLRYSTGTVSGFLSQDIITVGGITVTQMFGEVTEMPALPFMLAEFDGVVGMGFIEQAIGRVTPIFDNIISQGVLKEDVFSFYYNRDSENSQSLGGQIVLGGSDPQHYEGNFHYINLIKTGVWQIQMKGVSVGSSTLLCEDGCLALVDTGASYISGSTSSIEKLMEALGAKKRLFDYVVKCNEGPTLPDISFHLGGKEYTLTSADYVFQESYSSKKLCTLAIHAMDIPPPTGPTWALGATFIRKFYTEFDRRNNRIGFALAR
Assay: In vitro test with pure human renin (inhibition of angiotensin I production from human tetradecapeptide renin substrate, RIA)
Assay type: biochemical
Settings: pH 7.4 buffer, hTD substrate, three hours at 37° C., angiotensin I by RIA
Description: IN VITRO TEST WITH PURE HUMAN RENIN
The test is carried out in Eppendorf test tubes. The incubation mixture consists of (1) 100 μl of human renin in buffer A (0.1M sodium phosphate solution, pH 7.4, containing 0.1% bovine serum albumin, 0.1% sodium azide and 1 mM ethylenediaminetetraacetic acid), sufficient for a renin activity of 2-3 ng of angiotensin I/ml/hr.; (2) 145 μl of buffer A; (3) 30 μl of 10 μM human tetradecapeptide renin substrate (hTD) in 10 mM hydrochloric acid; (4) 15 μl of dimethyl sulphoxide with or without inhibitor and (5) 10 μl of a 0.03 molar solution of hydroxyquinoline sulphate in water.
The samples are incubated for three hours at 37° C. or 4° C. in triplicate. 2×100 μl samples per experimental test tube are used in order to measure the production of angiotensin I via RIA (standard radioimmunoassay; clinical assay solid phase kit). Cross reactivities of the antibody used in the RIA are: angiotensin I 100%; angiotensin II 0.0013%; hTD (angiotensin I-Val-Ile-His-Ser-OH) 0.09%. The production of angiotensin I is determined by the difference between the experiment at 37° C. and that at 4° C.
The following controls are carried out:
(a) Incubation of hTD samples without renin and without inhibitor at 37° C. and 4° C. The difference between these two values gives the base value of the angiotensin I production.
(b) Incubation of hTD samples with renin, but without inhibitor at 37° C. and 4° C. The difference between these values gives the maximal value of angiotensin I production.
In each sample the base value of the angiotensin I production is subtracted from the angiotensin I production which is determined. The difference between the maximal value and the base value gives the value of the maximal substrate hydrolysis (=100%) by renin.
The results are given as IC50 values which denote that concentration of the inhibitor at which the enzymatic activity is inhibited by 50%. The IC50 values are determined from a linear regression curve from a logit-log plot.

IC50	Compound
11 nM	CCC(C)c1nc(-c2cccnc2)cn2c(C(=O)N[C@@H](CC3CCCCC3)[C@@H](O)[C@@H](O)C3CC3)nnc12 (mixture of isomers) [F, N-[(1S,2R,3S)-1-(cyclohexylmethyl)-3-cyclopropyl-2,3-dihydroxypropyl]-8-[(RS)-1-methylpropyl]-6-(3-pyridyl)-s-triazolo[4,3-a]pyrazine-3-carboxamide]
61 nM	CCCc1nc(-c2cccnc2)cn2c(C(C(=O)N[C@@H](CC3CCCCC3)[C@@H](O)[C@@H](O)C3CC3)c3cccnc3)nnc12 (single isomer, unassigned) [A, (R or S)-N-[(1S,2R,3S)-1-(Cyclohexylmethyl)-3-cyclopropyl-2,3-dihydroxypropyl]-8-propyl-α,6-bis(3-pyridyl)-s-triazolo[4,3-a]pyrazine-3-acetamide]
43 nM	CC(C)c1nc(-c2cccnc2)cn2c(C(Cc3c[nH]cn3)C(=O)N[C@@H](CC3CCCCC3)[C@@H](O)[C@@H](O)C3CC3)nnc12 (single isomer, unassigned) [B, (R or S)-N-[(1S,2R,3S)-1-(cyclohexylmethyl)-3-cyclopropyl-2,3-dihydroxypropyl]-8-isopropyl-α-(imidazol-4-ylmethyl)-6-(3-pyridyl)-s-triazolo[4,3-a]pyrazine-3-acetamide]
42 nM	CC(C)Cc1nc(-c2cccnc2)cn2c(C(Cc3cnc[nH]3)C(=O)N[C@@H](CC3CCCCC3)[C@@H](O)[C@@H](O)C3CC3)nnc12 (single isomer, unassigned) [C]
57 nM	CCCc1nc(-c2cccnc2)cn2c(C(Cc3cccnc3)C(=O)N[C@@H](CC3CCCCC3)[C@@H](O)[C@@H](O)CC(C)C)nnc12 (single isomer, unassigned) [D, (R or S)-N-[(1S,2R,3S)-1-(cyclohexylmethyl)-2,3-dihydroxy-5-methylhexyl]-8-propyl-6-(3-pyridyl)-α-(3-pyridylmethyl)-s-triazolo[4,3-a]pyrazine-3-acetamide]
48 nM	CCC(C)c1nc(-c2cccnc2)cn2c(C(Cc3cccnc3)C(=O)N[C@@H](CC3CCCCC3)[C@@H](O)[C@@H](O)C3CC3)nnc12 (single isomer, unassigned) [E, (S or R)-N-[(1S,2R,3S)-1-(cyclohexylmethyl)-3-cyclopropyl-2,3-dihydroxypropyl]-8-[(RS)-1-methylpropyl]-α-(3-pyridylmethyl)-6-(3-pyridyl)-s-triazolo[4,3-a]pyrazine-3-acetamide]
